Assay results from patent US5110911A, “Human tumor-associated Thomsen-Friedenreich antigen” (Biomira, Inc., priority 1989, dated 1992).

Assays:
[1] = test system: 49H.8; settings: inhibitor concentration of 2 mg/ml; cited from earlier work
[2] = test system: TF Antigen Binding with MAb 49H.8 (LS174T Conditioned Medium); experiment: Inhibition of TF antigen binding with MAb 49H.8 by synthetic carbohydrates in SRIA, LS174T conditioned medium; set-up: species or system human
Experimental: (§1) Breakable strips of microtitre wells were coated with MAb […].8 or a control antibody (MOPC-104E), 1 μg/well, by overnight incubation at 4° C. The wells were then serially incubated with FBS 5% in PBS at 37° C. for 30 minutes, with antigen solution at 37° C. for two hours, and with radioiodinated PNA (2×10^5 cpm/well) at room temperature for two hours. The wells were washed with PBS containing 0.05% Tween-20 after each of the above steps. Each well was counted for ^125 I activity using a gamma counter.

[3] = test system: TF Antigen Binding with MAb 49H.8 (PE89); experiment: Inhibition of TF antigen binding with MAb 49H.8 by synthetic carbohydrates in SRIA, PE89; set-up: species or system human
Experimental: as §1

[4] = test system: TF Antigen Binding with MAb 49H.8 (647V Conditioned Medium); experiment: Inhibition of TF antigen binding with MAb 49H.8 by synthetic carbohydrates in SRIA, 647V conditioned medium; set-up: species or system human
Experimental: as §1

[5] = test system: antigen capture by MAb 49H.8; experiment: Inhibition of the antigen capture by synthetic carbohydrate haptens; assay type: binding
Experimental: as §1

[6] = test system: TF Antigen Binding with MAb 49H.8 (Ta3-Ha Conditioned Medium); experiment: Inhibition of TF antigen binding with MAb 49H.8 by synthetic carbohydrates in SRIA, Ta3-Ha conditioned medium; set-up: species or system murine
Experimental: as §1

[7] = test system: carcinoma cell lines; settings: all nine cell lines named; cited from earlier work

OC[C@H]1OC(O)[C@H](O)[C@@H](O)[C@H]1O (stereo partly drawn) [D-Gal]
inhibition in binding of 49H.8 to neuraminidase-treated erythrolytes [1]: 5%

OC[C@H]1O[C@@H](Oc2ccccc2)[C@H](O)[C@@H](O)[C@H]1O [Phenyl-β-D-galactoside]
% Inhibition ± SD, LS174T Conditioned Medium ([2]; inhibitor 5 mM): 86.95%
% Inhibition ± SD, LS174T Conditioned Medium ([2]; inhibitor 10 mM): 95.91%
% Inhibition ± SD, PE89 ([3]; inhibitor 5 mM): 45.48%
% Inhibition ± SD, PE89 ([3]; inhibitor 10 mM): 69.04%
% Inhibition ± SD, 647V Conditioned Medium ([4]; inhibitor 5 mM): 66.60%
% Inhibition ± SD, 647V Conditioned Medium ([4]; inhibitor 10 mM): 90.12%
Inhibition of the positive reactivity in the sandwich assay (in words) [5]: inhibited
% Inhibition ± SD, Ta3-Ha Conditioned Medium ([6]; inhibitor 5 mM): 69.40%
% Inhibition ± SD, Ta3-Ha Conditioned Medium ([6]; inhibitor 10 mM): 96.25%

OC[C@H]1O[C@@H](Oc2ccccc2)[C@H](O)[C@@H](O)[C@@H]1O [Phenyl-β-D-glucoside]
% Inhibition ± SD, LS174T Conditioned Medium ([2]; inhibitor 5 mM): -7.15%
% Inhibition ± SD, LS174T Conditioned Medium ([2]; inhibitor 10 mM): -1.67%
% Inhibition ± SD, PE89 ([3]; inhibitor 5 mM): -6.41%
% Inhibition ± SD, PE89 ([3]; inhibitor 10 mM): -4.61%
% Inhibition ± SD, 647V Conditioned Medium ([4]; inhibitor 5 mM): -3.00%
% Inhibition ± SD, 647V Conditioned Medium ([4]; inhibitor 10 mM): 0.58%
Inhibition of the positive reactivity in the sandwich assay (in words) [5]: did not show any inhibition
% Inhibition ± SD, Ta3-Ha Conditioned Medium ([6]; inhibitor 5 mM): 3.92%
% Inhibition ± SD, Ta3-Ha Conditioned Medium ([6]; inhibitor 10 mM): 1.38%

CC(=O)N[C@@H]1[C@@H](O[C@@H]2O[C@H](CO)[C@H](O)[C@H](O)[C@H]2O)[C@@H](O)[C@@H](CO)O[C@@H]1O [TF disaccharide, D-β-Gal (1-3)-α-GalNAc]
inhibition in binding of 49H.8 to neuraminidase-treated erythrolytes [1]: 33%

CC(=O)N[C@@H]1[C@@H](O[C@@H]2O[C@H](CO)[C@H](O)[C@H](O)[C@H]2O)[C@@H](O)[C@@H](CO)O[C@H]1O [beta anomer]
inhibition in binding of 49H.8 to neuraminidase-treated erythrolytes [1]: 29%

O=[N+]([O-])c1ccc(O[C@@H]2O[C@H](CO)[C@H](O)[C@H](O)[C@H]2O)cc1 [p-nitrophenyl-β-D-galactoside]
Inhibition of the positive reactivity in the sandwich assay (in words) [5]: inhibited

p-nitrophenyl-α-D-galactoside [p-nitrophenyl α-D-galactoside]
Inhibition of the positive reactivity in the sandwich assay (in words) [5]: did not show any inhibition

B1: PNA: lectin extracted from the peanut (Arachis hypogaea) which recognizes the terminal disaccharide of the TF-antigen (protein, UniProt P02872 24-273, looked up)
Galactose-binding lectin: AETVSFNFNSFSEGNPAINFQGDVTVLSNGNIQLTNLNKVNSVGRVLYAMPVRIWSSATGNVASFLTSFSFEMKDIKDYDPADGIIFFIAPEDTQIPAGSIGGGTLGVSDTKGAGHFVGVEFDTYSNSEYNDPPTDHVGIDVNSVDSVKTVPWNSVSGAVVKVTVIYDSSTKTLSVAVTNDNGDITTIAQVVDLKAKLPERVKFGFSASGSLGGRQIHLIRSWSFTSTLITTTRRSIDNNEKKIMNMASA
Binding to carcinoma cell lines [7]: marked
